Test results as given in PMC10762078, “Role of UPF1-LIN28A interaction during early differentiation of pluripotent stem cells” (Nature Communications, 2024).
Entries after “also recorded” stand apart in the source; their conditions may differ. Ends that are not written are not given here.

Experiments:
Assay type in all cases: cell-based, human
CHA15 cells [1] = test: Immunofluorescence counting of OCT4- and NANOG-positive cells (Fig. 6c); conditions: for NANOG-positive cells, fluorescence quantification, mean / OCT4-positive cells, fluorescence quantification, mean: CHA15, CPP-peptide 10 μM, mean of 4 sets; for NANOG fluorescence, difference between means vs P1 ± SEM / OCT4 fluorescence, difference between means vs P1 ± SEM: CHA15, vs CPP-P1
Procedure: (§1) For CPP-conjugated peptide delivery, HeLa, 293T, and PA-1 cells were incubated with CPP-conjugated peptides or CPP-FITC at 2 μM in DMEM with 10% FBS for 12 h a day before cell harvest. hPSCs were treated with CPP-conjugated peptides at 10 μM in mTeSR Plus Medium, and the peptide-containing medium was changed every day over 10 days. The ROCK inhibitor (Tocris Bioscience, Y-27632) treated-hPSCs were dissociated into single cells using Accutase (Merck, SCR005) and differentiated into ectoderm, mesoderm, and endoderm using the STEMdiff Trilineage Differentiation Kit ([…] Technologies, 05230) following the manufacturer’s protocol. Differentiated cells treated with CPP-conjugated peptides were analysed at 0, 3, and 5 days for ectoderm and endoderm, and at 0, 3, and 4 days for mesoderm.
(§2) hPSCs or differentiated cells were fixed in 4% paraformaldehyde (Sigma-Aldrich). After 15–20 min, the cells were washed with 0.1% bovine serum albumin in phosphate-buffered saline (BSA/PBS) thrice and blocked for 1 h by adding 0.3% Triton X-100 (Sigma-Aldrich) and 10% normal goat serum (NGS; Fitzgerald industries, NG22S). After blocking, cells were incubated with the following primary antibodies: anti-UPF1 (Cell Signaling Technology, 12040; 1:500), LIN28A (Cell Signaling Technology, 3978; 1:500), OCT4 (Santa Cruz, sc-5279; 1:500), NANOG (Cell Signaling Technology, 4903; 1:500), DLK1 (GeneTex, GTX60511; 1:500), SOX1 (Cell Signaling Technology, 4194; 1:500), or LHX2 (GeneTex, GTX129241; 1:500). Primary antibodies were incubated overnight at 4 °C followed by incubation with the following secondary antibodies: Cy3 (Jackson ImmunoResearch, 115-165-146; 1:500) or Alexa Fluor 488 (Invitrogen, A-11008; 1:500) followed by the incubation with secondary fluorescence-conjugated antibodies for 1 h. The cells were mounted in […] with DAPI mounting medium (Vector Laboratories, H1200).
(§3) Immunofluorescence staining, proximity ligation assay imaging, and cell-penetrating efficiency of CPP-FITC were imaged with a confocal laser scanning microscope (Leica, TSC SP5) or immunofluorescence microscope (Leica, DM5000B). Z-stacks were captured, with sections spanning the entire cell. The LAS X Life Science program was used to obtain the maximum intensity projections and cross-sections of the confocal images.

p-UPF1 (Ser1096) = test: Western blot of p-UPF1 (Ser1096) in CPP-peptide-treated hPSCs; conditions: for p-UPF1 (Ser1096)/Calnexin, mean: relative to CPP-P1 = 100, n = 3
Procedure: as §1
Protein samples were loaded for electrophoresis on sodium dodecyl sulphate (SDS) polyacrylamide gels, followed by Coomassie blue staining or transferred to nitrocellulose membranes (Cytiva) for WB. After blocking with 5% non-fat milk (Cellconic) in Tris-buffered saline with Tween-20 for 30 min at room temperature, the membranes were incubated with the following primary antibodies: anti-FLAG (GenScript, A00187; 1:2000), UPF1 (Cell Signaling Technology, 12040; 1:4000), UPF2 (Cell Signaling Technology, 11875; 1:2000), eIF4E (Cell Signaling Technology, 2067; 1:2000), β-actin (Sigma-Aldrich, A2228; 1:4000), GST (Cytiva, 27-4577-01; 1:2000), MYC (Calbiochem, OP10; 1:2000), Calnexin (Cell Signaling Technology, 2679; 1:4000), LIN28A (Cell Signaling Technology, 3978; 1:2000), pSer1096 phosphorylated UPF1 (1:2000)[58], or p-Thr28 phosphorylated UPF1 (ImmuQuest, IQ653; 1:2000). Primary antibodies were incubated overnight at 4 °C and then washed thrice with TBS-T, followed by incubation with secondary antibodies: Goat anti-Rabbit IgG (Invitrogen, 31460; 1:4000), Goat anti-Mouse IgG (Invitrogen, 31430; 1:4000), or Horse anti-Goat IgG (Vector Laboratories, PI-9500; 1:4000) for 1 h at room temperature. For pull-downed protein detection, all primary and secondary antibodies were diluted at 1:10,000. The blots were imaged using ChemiDoc XRS+ System (Bio-Rad) and the greyscale intensity values were quantified using Image Lab 3.0 software (Bio-Rad).
DAPI FITC Merge DAPI FITC Merge CHA15 H9 Pro2 H9
No peptide CPP-FITC Calnexin
For 2-day treatm ent For 4-day treatm ent […]
Student’s t-test was used. Data are presented as m ean values ± S.D (b) and mean values ± SEM (c and d). All statistical test us ed wer e two-s ided. T he m inim um num ber of independent biological replicate experim ents was a, b, and d n = 3, c n = 5. T he experim ents wer e conducted three tim es, each iteration producing consistent results. […]

CHA15 cells [2] = test: Flow cytometry (FACS) of OCT4- and NANOG-positive cells (Fig. 6c, Supplementary Fig. 6b); conditions: for NANOG-positive cells, FACS (relative), mean / OCT4-positive cells, FACS (relative), mean: CHA15, CPP-peptide 10 μM, mean of 3 sets; for NANOG FACS, difference between means vs P1 ± SEM / OCT4 FACS, difference between means vs P1 ± SEM: CHA15, vs CPP-P1
Procedure: as §1
To evaluate the relative cell number expressing the indicated proteins, CHA15 cells with the indicated CPP-conjugated peptide were fixed with BD Cytofix Fixation Buffer (BD Biosciences Pharmingen, 554655) followed by permeabilization with 0.1% BSA/PBS solution supplemented with 10% NGS and 0.3% Triton X-100 for 1 h at 4 °C. After washing, cells were incubated with the primary antibodies (OCT4 1:1000, NANOG 1:1000, DLK1 1:1000, SOX2 1:1000, LHX2 1:1000) and then, secondary antibody, Alexa Fluor 488 (1:1000), was applied. The positive cells were determined using flow cytometry (FACSCanto, BD Pharmingen), and data was analysed using the Flow Jo-v10 software program.

CHA15 cells [3] = test: Immunostaining of SOX1, DLK1 and LHX2 during ectodermal differentiation (Fig. 7b); conditions: for DLK1 fluorescence quantification, mean / LHX2 fluorescence quantification, mean / SOX1 fluorescence quantification, mean: mean of set1-set4
Procedure: as §1, §2, §3

[4] = ectodermal differentiation, CHA15
[5] = Fig 7b, vs. P1, ± SEM, unpaired t test, df=6

| Substance | NANOG-positive cells, fluorescence quantification, mean (CHA15 cells [1]) | OCT4-positive cells, fluorescence quantification, mean (CHA15 cells [1]) | p-UPF1 (Ser1096)/Calnexin, mean (p-UPF1 (Ser1096); CHA15, 2-day treatment) | p-UPF1 (Ser1096)/Calnexin, mean (p-UPF1 (Ser1096); H9, 2-day treatment) | p-UPF1 (Ser1096)/Calnexin, mean (p-UPF1 (Ser1096); H9, 4-day treatment) | p-UPF1 (Ser1096)/Calnexin, mean (p-UPF1 (Ser1096); Pro2, 2-day treatment) | NANOG-positive cells, FACS (relative), mean (CHA15 cells [2]) | OCT4-positive cells, FACS (relative), mean (CHA15 cells [2]) | DLK1 fluorescence quantification, mean (CHA15 cells [3]; Fig 7b) | LHX2 fluorescence quantification, mean (CHA15 cells [3]; Fig 7b) | SOX1 fluorescence quantification, mean (CHA15 cells [3]; Fig 7b) | NANOG fluorescence, difference between means vs P1 ± SEM (CHA15 cells [1]) | OCT4 fluorescence, difference between means vs P1 ± SEM (CHA15 cells [1]) | NANOG FACS, difference between means vs P1 ± SEM (CHA15 cells [2]) | OCT4 FACS, difference between means vs P1 ± SEM (CHA15 cells [2]) | other results |
| --- | --- | --- | --- | --- | --- | --- | --- | --- | --- | --- | --- | --- | --- | --- | --- | --- |
| N-QKLDQKELQLEPM-C [P1, reference compound] | 85.74 | 92.4 | 100% | 100% | 100% | 100% | 1 | 1 | 30.09 | 34.79 | 60.17 | – | – | – | – | – |
| KKKWCRKKKSSADEKRYRALKRTAERELLMNA [CPP-P8, CPP conjugated to P8] | – | – | – | – | – | – | – | – | – | – | – | – | – | – | – | levels of OCT4 and NANOG (CHA15 cells [1]; CHA15, proliferative state): significantly decreased; phosphorylated UPF1 (p-UPF1 (Ser1096); CHA15 and Pro2 cells, 10 μM): increased phosphorylated UPF1 in CHA15 and Pro2 cells; also recorded: upregulation of p-UPF1 in CHA15 and Pro2 cells; p-UPF1 levels after longer treatment (p-UPF1 (Ser1096); H9, 4-day treatment): upregulates the levels of p-UPF1; p-UPF1 levels (p-UPF1 (Ser1096); H9 cells, short treatment, 10 μM): did not elicit a corresponding increase in p-UPF1 levels in H9 cells; DLK1 and LHX2 expression (CHA15 cells [3]; [4]): increased DLK1 and LHX2 expression; SOX1 expression (CHA15 cells [3]; [4]): abrogated SOX1 expression |
| KKKWCRKKKSSADEKRYRALKRTAERELLMNA [P8] | 14.24 | 22.84 | 203% | 91% | 226% | 244% | 0.7195 | 0.7944 | 98 | 65.64 | 40.11 | -71.49 ± 1.616 | -69.57 ± 2.939 | -0.2805 ± 0.006838 | -0.2056 ± 0.01612 | DLK1 fluorescence quantification, difference between means ± SEM (CHA15 cells [3]; [5]): 67.91 ± 4.905; LHX2 fluorescence quantification, difference between means ± SEM (CHA15 cells [3]; [5]): 30.85 ± 5.040; SOX1 fluorescence quantification, difference between means ± SEM (CHA15 cells [3]; [5]): -20.06 ± 8.048 |
| N-MPELQKLQQLKDE-C [P2, peptide derived from the UPF1 (419–700) domain] | 81.51 | 89.62 | – | – | – | – | 0.969 | 0.9851 | – | – | – | -4.223 ± 2.867 | -2.780 ± 1.262 | -0.03103 ± 0.01235 | -0.01489 ± 0.005688 | – |
